# Experimental data from paper PMC10447463, “Data-mining unveils structure–property–activity correlation of viral infectivity enhancing self-assembling peptides” (Nature Communications, 2023).
# How the values were obtained:
# [1] = tested on: HIV-1 infection of TZM-bl cells; assay: HIV-1 infectivity enhancement assay, β-galactosidase luminescence; format: cell-based; conditions: for Log10 Inf. rel. to EF-C: log10 of HIV-1 infection of TZM-bl cells relative to EF-C, Fig S15 source data, asymmetric std dev errors
# [2] = Zeta-potential measurement; format: physicochemical; design: Zeta-Potential: unit not given here; conditions: for Zeta-pot. / mV: zeta potential of peptide, Fig S15 source data
# Description: (§1) 4 µL of 1 mg/mL peptide fibrils solution is added to a 20 µL, 50 µM ThT–solution in PBS. The mixture is incubated for 15 min at RT to allow binding of ThT dye with β–sheet rich structures. For reference PBS (4 µL) was added instead of peptide fibril solution. The samples were placed in black UV Star® 384 microliter well–plates (Greiner bio–one). Fluorescence spectra were recorded on an Infinite® M1000 PRO microplate reader (Tecan) at λem = 488 nm upon excitation at λex = 440 nm with 10 nm bandwidths and multiple reads per well (3×3). Measurements were repeated in triplicates and averaged with standard deviation. […] Zeta-Potential. For the determination of the surface charge of aggregated peptides zeta-potential measurements were conducted with a Zetasizer Nano ZS, Malvern Instruments. Unless stated otherwise the peptides were dissolved from DMSO (10 mg/mL) in PBS (pH 7.4) to concentration of 1 mg/mL and incubated for 1d at RT. Just before the measurement the 60 µL of the peptides were further diluted in 600 µL KCl (aq, 1 mM) in a 1 mL disposable folded capillary cells (DTS–1060, Zetasizer Nano series, Malvern). The zeta potential of the peptides was derived from the electrophoretic mobility based on the Smoluchowski formula. All measurements were averaged over two individually performed experiments and conducted in triplicates for each sample. Aggregate analysis. […] Furthermore, fluorescence microscopy was conducted by staining 1 µL preformed fibrils (1 mg/mL) with 9 µL ThT (50 µM). Brightfield microscopy was performed simultaneously to evaluate aggregation also for non ThT-active fibrils. The measurements were performed on a Leica DMi8 microscope with 10x air objective and equipped with a Leica MC170 HD camera with a filter setting λem = 527/30 nm upon excitation at λex = 480/40 nm) and processed with the Leica LASX software. To quantify size and number of microscopic aggregation of particles > 10 µm^2 at least 3 independently measured images were analyzed via the 3D object counter analysis tool of ImageJ, v 1.53f51. Sum–frequency generation. The SFG experiments were carried out with a femtosecond Ti: Sapphire amplified laser system (Spitfire Ace, Spectra–Physics, 800 nm, 40 fs, 1 kHz) with 5 W output power. We used 2 W to pump an optical parametric amplifier (TOPAS, light conversion) with a non–collinear difference frequency generation stage to generate broadband IR pulses. Another 1 W of the laser output passed through an etalon to generate narrowband visible pulses (10 cm^-1). The incident angles of the visible and IR beams were 36° and 41° with respect to the surface normal, respectively. The visible (13 µJ) and IR (5 µJ) pulses were overlapped spatially and temporally at the sample position. Subsequently, the generated SFG pulse was guided into a spectrograph (Acton SP 300i, Princeton Instruments), and detected with an EMCCD (Newton, Andor Technology). To avoid IR absorption of water vapor, we purged N2 for the measurement. All spectra were collected in the ssp (denoting s-, s- and p-polarized SFG, visible and IR, respectively) polarization combination. The spectra were normalized to the non–resonant signal taken from z–cut quartz after subtracting a background spectrum. […]
# [3] = Turbidity, derived count rate of scattered light; format: physicochemical; conditions: derived count rate of scattered light
# Description: as §1
# ways to determine turbidity of samples, this can be via transmittance and via scattering. Transmittance […]
# as it is an easy and fast method.10,11 However, transmittance contributes not only from µm-sized aggregates but also nm-sized aggregates such as distinct fibrils, which makes hard to distinguish between fibril formation and micrometer sized aggregation. Although dynamic light scattering is a frequently applied method for determination of particle size, it cannot be conducted in solutions with anisotropic aggregates in micrometer size range, since the Stokes-Einstein relation is only applicable for homogeneous […] spherical particles.12 Further models describing scattering intensity and […]
# [4] = infectivity class (low / medium / high) of each library peptide, main list in c1-c6, same classes repeated in sub-lists of sequences containing the hydrophobicity/charge patterns P+,H0,P+,H0,P0,H0,P0, P+,H0,P0,H0,P0,H0,P0, P+,H0,P0,H0
# [5] = infectivity class (low / medium / high) of the peptide in the sequence-pattern analysis, Fig. S22-A4, class limits not given
Substance,"infectivity [1, 4]",Log10 Inf. rel. to EF-C [1],Zeta-pot. / mV [2] [mV],other results
KYKGAIIGNIK [CN19],low,-2.508,-9.14,
MKFM [CN32],low,-1.756,-16,
SISISRRI [CN28],low,-1.548,-17,
HGEHGE [CN6],low,-2.193,-12.6,
CKFQC [CN31],low,-1.643,-17.38,
MDQMDQMDQMDQMDQ [CN23],low,-2.37,-14.98,
HGEHGEHGE [CN7],low,-1.72,-24.2,
KFKFEFEF [MGe01],,-1.547,-2.55,"infectivity [1, 5]: low"
KNDKND [CN5],low,-1.978,-15,
HHHHEIEIEIEI [JR9],low,-1.534,-6.91,
CETMYDKILKNLSRSR [CR16],low,-1.716,0.41,
FKFDKFKFDK [CN26],low,-1.334,-12.7,
KKFQKKFQ [CN21],low,-1.545,-9.19,
CKFC [CN33],low,-1.959,-19.89,
EIEIEIEI [JR12],low,-1.748,-8.92,
PPFHPPPFHP [CN22],low,-1.751,-15.8,
Lysozyme,,,,Count Rate ([3]; mean of n = 3): 217.9 kcps; Count Rate ([3]; replicate 1): 304.4 kcps; Count Rate ([3]; replicate 2): 195.7 kcps; Count Rate ([3]; replicate 3): 153.6 kcps; Zeta Potential ([2]; mean of n = 3): 4.807; Zeta-Potential ([2]; replicate 1): 4.05; Zeta-Potential ([2]; replicate 2): 5.03; Zeta-Potential ([2]; replicate 3): 5.34
ILKNLSRSRKIKIQIC [TM116],medium,-0.4741,18,
EFEFQF [KB11],low,-2.485,-24.5,
KVKGVGK [CN27],low,-1.587,-12.8,
KNERIKNERI [CN3],low,-1.888,-16,
IKVAVKIKIQINM [TM74],medium,-0.3046,14.5,
KIRGKFEKED [CN30],low,-1.2355,-12.7,
NMWQKVGTPL [JG7],low,-1.607,-9.62,
EIKIQINM [TM73],low,-1.001,-22.33,"infectivity [1, 5]: low"
FDPFDPFDP [CN24],low,-1.6317,-10.9,
CKIKQIIRGD [psis22],,-1.311,13.2,"infectivity [1, 5]: low"
RGDKIRGDKI [CN4],low,-2.126,-13.57,
KIEIQINM [NM6],,-1.458,-0.35,"infectivity [1, 5]: low"
HGDKCHGDKC [CN2],low,-1.991,-11.63,
